From publication PMC2692895 (Journal of medicinal chemistry, 2008)
Where two headings read alike, the source gives them in different places.

Key:
[1] = Drug metabolic stability, S9 fraction with NADPH; type: in vitro ADME
[2] = test system: caspase-3 activation in MDA-MB-231 cells; assay: Caspase-3 activation; settings: MDA-MB-231, 24 hours
[3] = Permeability by PAMPA; type: in vitro ADME
[4] = test system: MDA-MB-231 breast cancer cell lines; settings: cited from earlier work
[5] = test system: MDA-MB-231 cells; assay: ATPLite cell viability, compound 3 and TRAIL alone or combined; type: cell-based, human; settings: low concentrations up to 110 ng/mL, 20 hours

For `CN[C@@H](C)C(=O)Nc1ccc(Oc2ccc(OC)cc2)c(C(=O)NCc2csc(-c3cccs3)n2)c1` [Compound 3, (S)-2-(4-methoxyphenoxy)-5-(2-(methylamino)propanamido)-N-((2-(thiophen-2-yl)thiazol-4-yl)methyl)benzamide], the half-life [1] was 14.5 min, the caspase-3 activation [2] was “increases caspase-3 activation” and the “Permeability (2 %), class” value [3] was “High”.

In the case of `COc1cc([C@@H]2c3cc4c(cc3[C@@H](O[C@@H]3O[C@@H]5CO[C@@H](C)O[C@H]5[C@H](O)[C@H]3O)[C@H]3COC(=O)[C@H]23)OCO4)cc(OC)c1O` [etoposide, reference compound], the DNA fragmentation ([4]; etoposide 5 µM) is listed as “no obvious DNA fragmentation”.

B1: TRAIL: tumor necrosis factor-related apoptosis-inducing ligand (Genentech) (protein, UniProt P50591 1-281, looked up)
Tumor necrosis factor ligand …: MAMMEVQGGPSLGQTCVLIVIFTVLLQSLCVAVTYVYFTNELKQMQDKYSKSGIACFLKEDDSYWDPNDEESMNSPCWQVKWQLRQLVRKMILRTSEETISTVQEKQQNISPLVRERGPQRVAAHITGTRGRSNTLSSPNSKNEKALGRKINSWESSRSGHSFLSNLHLRNGELVIHEKGFYYIYSQTYFRFQEEIKENTKNDKQMVQYIYKYTSYPDPILLMKSARNSCWSKDAEYGLYSIYQGGIFELKENDRIFVSVTNEHLIDMDHEASFFGAFLVG
In the case of B1, the “induction of tumor cell death, TRAIL alone” value [5] is listed as “very little effects” and the DNA fragmentation ([4]; TRAIL 30 ng/ml) is listed as “no obvious DNA fragmentation”.
